Source: paper PMC4604124, “In Vitro Characterization of the Pharmacological Properties of the Anti-Cancer Chelator, Bp4eT, and Its Phase I Metabolites” (PLoS ONE, 2015)
Where “and” joins values, the source holds several entries; their conditions need not be identical. Identical values can stand only once. Like-named read-outs stand apart in the source and are kept apart here.

How the values were obtained:
LC3-II = assay: Western blot and densitometry of LC3-I/II (autophagy); assay type: cell-based, human; settings: for densitometry WB, relative to NT = 1: single blot
Source text: Established protocols were used to prepare cell lysates and perform immunoblot analysis. Primary antibodies used include: rabbit LC3 (Cat. #: MBPM036; 1:2,000) from Abacus (Brisbane, Australia) and mouse β-actin (Cat. #: A1978, 1:10,000) from Sigma-Aldrich. The following secondary antibodies were utilized: horseradish peroxidase (HRP)-conjugated anti-rabbit (Cat. #: A6154, […]) and anti-mouse (Cat. #: A4416, 1:10,000) antibodies from Sigma-Aldrich. To ensure equal loading of proteins, membranes were probed for β-actin.

[1] = Viability (viabilita) used to normalise caspase activity; assay type: cell-based, human; settings: human, MCF-7 cells, kontrola = 100;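 note: compound tested at 100 nM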
Source text: Supplement pone.0139929.s002.zip/caspases activity.xlsx, sheet "results_viability"

[2] = tested on: A549 human lung adenocarcinoma cells; assay: MTT cytotoxicity assay, A549 cells; assay type: cell-based; settings: for IC50: MTT
Procedure, shortened: (§1)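 72 h/37°C exposure, 0.1% DMSO. Plating: MCF-7 5,000; HCT116, A549 2,000; H9c2 10,000 cells/well, H9c2 switched to serum/pyruvate-free DMEM 24 h. MTT OD 570 nm, 690 nm background subtracted. Viability as % untreated control; IC50 derived.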

[3] = tested on: cancer cells (HL-60, MCF-7, HCT116, A549) and non-cancerous cells (H9c2, 3T3); assay: MTT cytotoxicity assay, summary over the cell line panel; assay type: cell-based
Method: For cytotoxicity experiments, cancer cells were seeded at a density of 5,000 (MCF-7), 10,000 (HL-60) or 2,000 cells/well (HCT116 and A549) in 96-well plates (TPP) for 24 h/37°C prior to the addition of examined agents. The non-cancerous cells, 3T3 and H9c2 cells, were cultured for 24 h/37°C in 96-well plates at a density of 10,000 cells/well, the medium was then changed to serum- and pyruvate-free DMEM (Sigma-Aldrich) and incubated with the cells for another 24 h/37°C. The cytotoxic effects of Bp4eT and its metabolites were studied at different concentrations after a 72 h/37°C incubation. In order to aid the dissolution of the lipophilic ligands, 0.1% dimethyl sulfoxide (v/v) (DMSO; Sigma-Aldrich) was present in the culture medium of all groups. At this concentration, DMSO had no effect on cellular proliferation or viability.
The viability of cells were determined using an MTT assay (Sigma-Aldrich) according to previously established methods. The optical density of soluble MTT was measured at λ = 570 nm, subtracting the λ = 690 nm background using a Tecan Infinite 200M plate reader (Tecan Group, Männedorf, Switzerland). The viability or proliferation of experimental groups was expressed as a percentage of the untreated controls (100%).
SigmaStat for Windows 3.5 (Systat Software, San Jose, CA, USA) statistical software package was utilized to analyze results. The data are expressed as the mean ± SD of a given number of experiments. Statistical significance was determined using a one-way ANOVA with a Bonferroni post-hoc test or Student’s t-test. The results were considered to be statistically significant when p < 0.05. The IC50 values were calculated using CalcuSyn 2.0 software (Biosoft, Cambridge, UK). Cell cycle analysis was evaluated using MultiCycle AV Software (Phoenix Flow Systems, San Diego, CA, USA).

[4] = tested on: MCF-7 human breast adenocarcinoma cells; assay: MTT cytotoxicity assay, MCF-7 cells; assay type: cell-based; settings: for IC50: MTT
Procedure, shortened: as §1

MCF-7 cells = assay: Cellular 59Fe uptake from 59Fe2-transferrin; assay type: cell-based, human; design: key to Uptake 59Fe, Ave / Uptake 59Fe: % of internalized 59Fe in untreated control cells
Procedure, shortened: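 Confluent MCF-7 cells were incubated 3 h at 37°C with 0.75 μM ⁵⁹Fe₂-transferrin (500 pCi/pmol Fe) plus chelator at 25 μM. Membrane-bound ⁵⁹Fe was released with Pronase (1 mg/mL, 30 min, 4°C). Pronase-insensitive internalized ⁵⁹Fe was expressed as % of untreated control.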

[5] = Supplementary Fig 2, 5uM (5M [sic] for Bp4eT)
[6] = Supplementary Fig 2, Baf+, 10nM
[7] = Supplementary Fig 2, Baf+, 100nM
[8] = Supplementary Fig 2, Baf+, 5uM (5M [sic] for Bp4eT)

CCNC(=S)NN=C(c1ccccc1)c1ccccn1 [Bp4eT, 2-benzoylpyridine 4-ethyl-3-thiosemicarbazone]
LC3II expression with Baf A1 relative to Baf A1 and control (LC3-II; 24 h/37°C, MCF-7, agent at all concentrations (10 nM– 5 μM), Baf A1 100 nM): did not lead to a significant (p > 0.05) increase | LC3-II levels upon co-incubation with Baf A1, compared to Baf A1 alone (LC3-II; 72 h/37°C, MCF-7, Baf A1 100 nM, Bp4eT 10 and 100 nM, Dp44mT 100 nM): significant (p < 0.001–0.05) suppression | densitometry WB, relative to NT = 1, Average (LC3-II; Fig 7E, 10nM): 6.247 | densitometry WB, relative to NT = 1 (LC3-II; Fig 7E, 10nM): 4.981 and 5.294 and 8.4664 | densitometry WB, relative to NT = 1, Average (LC3-II; Fig 7E, 100nM): 6.003 | densitometry WB, relative to NT = 1, Average (LC3-II; Supplementary Fig 2, 10nM): 1.7596 | densitometry WB, relative to NT = 1, Average (LC3-II; Supplementary Fig 2, 100nM): 0.8507 | densitometry WB, relative to NT = 1, Average (LC3-II; [5]): 0.7357 | densitometry WB, relative to NT = 1 (LC3-II; [5]): 0.9358 and 0.7729 and 0.4982 | densitometry WB, relative to NT = 1, Average (LC3-II; [6]): 143.432 | densitometry WB, relative to NT = 1 (LC3-II; [6]): 159.536 and 131.647 and 139.114 | densitometry WB, relative to NT = 1, Average (LC3-II; [7]): 74.7567 | densitometry WB, relative to NT = 1 (LC3-II; [7]): 63.4737 and 60.9216 and 99.8746 | densitometry WB, relative to NT = 1, Average (LC3-II; [8]): 159.207 | densitometry WB, relative to NT = 1 (LC3-II; [8]): 188.04 and 116.854 and 172.727 | LC3-II levels compared to the control (LC3-II; agent alone, 72 h/37°C, MCF-7, Bp4eT 10 and 100 nM, Dp44mT 100 nM, Baf A1 100 nM): slight, but significant (p < 0.05) increase | viability at 3 h, 100 nM ([1]; 3 hodiny): 96.3% | viability at 24 h, 100 nM ([1]; 24 hodin): 52.8% | viability at 72 h, 100 nM ([1]; 72 hodin): 27.1% | Therapeutic index, IC50 non-cancerous cells / IC50 neoplastic cells ([2]; 3T3/A549): 2.2 | MTT, relative to control (0 = 100) ([2]; A549, 2 000 b/j, 3 nM, průměr (mean)): 92.19 | MTT, relative to control (0 = 100) ([2]; A549, 2 000 b/j, 3 nM, single experiment (date)): 91.5535 and 92.8133 and 91.0654 and 88.0734 and 97.4647 | MTT, relative to control (0 = 100) ([2]; A549, 2 000 b/j, 10 nM, průměr (mean)): 91.72 | MTT, relative to control (0 = 100) ([2]; A549, 2 000 b/j, 10 nM, single experiment (date)): 91.5177 and 92.1605 and 92.1041 and 86.392 and 96.4421 | MTT, relative to control (0 = 100) ([2]; A549, 2 000 b/j, 30 nM, průměr (mean)): 87.89 | MTT, relative to control (0 = 100) ([2]; A549, 2 000 b/j, 30 nM, single experiment (date)): 87.7056 and 88.2789 and 85.7469 and 83.2321 and 94.498 | MTT, relative to control (0 = 100) ([2]; A549, 2 000 b/j, 100 nM, průměr (mean)): 69.03 | MTT, relative to control (0 = 100) ([2]; A549, 2 000 b/j, 100 nM, single experiment (date)): 72.0253 and 71.8755 and 68.5876 and 61.5642 and 71.0965 | MTT, relative to control (0 = 100) ([2]; A549, 2 000 b/j, 300 nM, průměr (mean)): 52.20 | MTT, relative to control (0 = 100) ([2]; A549, 2 000 b/j, 300 nM, single experiment (date)): 56.5532 and 52.1351 and 48.5459 and 51.5538 | MTT, relative to control (0 = 100) ([2]; A549, 2 000 b/j, 1000 nM, průměr (mean)): 44.75 | MTT, relative to control (0 = 100) ([2]; A549, 2 000 b/j, 1000 nM, single experiment (date)): 46.6699 and 42.1761 and 41.9617 and 48.1966 | MTT, relative to control (0 = 100) ([2]; A549, 2 000 b/j, 3000 nM, průměr (mean)): 30.92 | MTT, relative to control (0 = 100) ([2]; A549, 2 000 b/j, 3000 nM, single experiment (date)): 34.7604 and 31.7204 and 27.6953 and 29.4937 | IC50 ([2]; A549, 2 000 b/j, single experiment (date)): 550 nM and 407 nM and 670 nM | Therapeutic index, IC50 non-cancerous cells / IC50 neoplastic cells ([2]; H9c2/A549): 0.9 | IC50 ([2]; Homo sapiens, A549, 72 h, A549, 72 h/37°C, mean ± SD, n ≥ 4): 593 ± 148 nM | IC50 ([2]; Homo sapiens, A549, A549, 2 000 b/j, průměr (mean)): 593 nM | IC50 ([2]; Homo sapiens, A549, A549, 2 000 b/j, single experiment (date)): 744 nM | Therapeutic indices, range ([2]; against A549 cells (H9c2/A549 and 3T3/A549)): 0.9–2.2 | IC50 ([3]; HL-60, MCF-7 and HCT116 cells, 72 h, read-out: IC50, range over cell lines): 3 to 15 nM | Therapeutic indices, range ([3]; towards HL-60, MCF-7 and HCT116 cancer cells): 34.9–436.3 | MCF-7 proliferation, % of the control ([4]; 0.1 μM, 72 h): 27% | Therapeutic index, IC50 non-cancerous cells / IC50 neoplastic cells ([4]; 3T3/MCF-7): 87.3 | Therapeutic index, IC50 non-cancerous cells / IC50 neoplastic cells ([4]; H9c2/MCF-7): 34.9 | IC50 ([4]; Homo sapiens, MCF7, 72 h, MCF-7, 72 h/37°C, mean ± SD, n ≥ 4, read-out: IC50): 15 ± 2 nM | IC50 ([4]; Homo sapiens, MCF7, MCF-7, 5 000 b/j, průměr (mean), read-out: IC50 měřené): 14.6 nM | IC50 ([4]; Homo sapiens, MCF7, MCF-7, 5 000 b/j, single experiment (date), read-out: IC50 měřené): 14.6 nM | MTT, relative to control (0 = 100) ([4]; MCF-7, 5 000 b/j, 0.1 nM, průměr (mean)): 96.38 | MTT, relative to control (0 = 100) ([4]; MCF-7, 5 000 b/j, 0.1 nM, single experiment (date)): 88.7924 and 103.938 and 95.2002 and 101.937 and 92.0538 | MTT, relative to control (0 = 100) ([4]; MCF-7, 5 000 b/j, 0.3 nM, průměr (mean)): 88.87 | MTT, relative to control (0 = 100) ([4]; MCF-7, 5 000 b/j, 0.3 nM, single experiment (date)): 99.7305 and 86.2923 and 86.9644 and 82.4877 | MTT, relative to control (0 = 100) ([4]; MCF-7, 5 000 b/j, 1 nM, průměr (mean)): 87.17 | MTT, relative to control (0 = 100) ([4]; MCF-7, 5 000 b/j, 1 nM, single experiment (date)): 87.1761 and 96.2311 and 86.4816 and 83.9319 and 82.0349 | MTT, relative to control (0 = 100) ([4]; MCF-7, 5 000 b/j, 3 nM, průměr (mean)): 84.98 | MTT, relative to control (0 = 100) ([4]; MCF-7, 5 000 b/j, 3 nM, single experiment (date)): 92.03 and 87.788 and 84.0816 and 76.0316 | MTT, relative to control (0 = 100) ([4]; MCF-7, 5 000 b/j, 10 nM, průměr (mean)): 59.89 | MTT, relative to control (0 = 100) ([4]; MCF-7, 5 000 b/j, 10 nM, single experiment (date)): 58.817 and 55.8764 and 63.7331 and 67.2949 and 53.713 | MTT, relative to control (0 = 100) ([4]; MCF-7, 5 000 b/j, 30 nM, průměr (mean)): 30.78 | MTT, relative to control (0 = 100) ([4]; MCF-7, 5 000 b/j, 30 nM, single experiment (date)): 29.4154 and 32.9782 and 31.8134 and 28.9002 | MTT, relative to control (0 = 100) ([4]; MCF-7, 5 000 b/j, 100 nM, průměr (mean)): 27.09 | MTT, relative to control (0 = 100) ([4]; MCF-7, 5 000 b/j, 100 nM, single experiment (date)): 33.1607 and 22.627 and 26.6274 and 27.398 and 25.6334 | IC50 ([4]; MCF-7, 5 000 b/j, single experiment (date), read-out: IC50 měřené): 16.3 nM and 16.2 nM and 11.2 nM | Internalized 59Fe uptake, % of the control (MCF-7 cells; 25 μM, 3 h/37°C, MCF-7, 0.75 μM 59Fe2-Tf): 11.5% | Uptake 59Fe, Ave (MCF-7 cells; average of all replicates, Control Ave = 100): 11.5476 | Uptake 59Fe (MCF-7 cells; single replicate (three per date), Control Ave = 100): 9.2904 and 11.2475 and 13.4264 and 10.306 and 10.873 and 13.9435 and 11.6905 and 10.1589 and 12.9919
